Measurements from ChEMBL document CHEMBL1681723, “Phellinstatin, a new inhibitor of enoyl-ACP reductase produced by the medicinal fungus Phellinus linteus” (Bioorg Med Chem Lett, 2011).
In brackets after ≈: the same amount, converted by molar mass. Activity calls are given as the source filed them. The rule behind the calls is not given here.

Experiments:
[1] = target: T1, Enoyl-[acyl-carrier-protein] reductase [NADPH] FabI (Staphylococcus aureus, UniProt Q6GI75); assay: (§1) Inhibition of Staphylococcus aureus enoyl-ACP reductase assessed as increase of NADPH level
T1 sequence (Q6GI75 whole entry): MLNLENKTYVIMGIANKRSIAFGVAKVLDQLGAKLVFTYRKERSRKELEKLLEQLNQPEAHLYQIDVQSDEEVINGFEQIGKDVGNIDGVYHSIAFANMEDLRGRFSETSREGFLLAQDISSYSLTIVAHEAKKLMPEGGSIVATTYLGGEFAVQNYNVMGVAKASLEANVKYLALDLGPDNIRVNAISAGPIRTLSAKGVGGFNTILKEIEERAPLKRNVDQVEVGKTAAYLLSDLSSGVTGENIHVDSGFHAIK

Staphylococcus aureus [2] = assay: Antibacterial activity against Staphylococcus aureus RN4220 at 128 ug/ml; assay type: functional, organism-based
Staphylococcus aureus [3] = assay: Antibacterial activity against methicillin-resistant Staphylococcus aureus CCARM 3167 at 128 ug/ml; assay type: functional, organism-based
[4] = target: T2, Enoyl-[acyl-carrier-protein] reductase [NADPH] FabI (Staphylococcus aureus) (UniProt Q6GI75); assay: as §1
T2 sequence (whole entry): T1 sequence (Q6GI75 whole entry)

Staphylococcus aureus [5] = assay: Antibacterial activity against Staphylococcus aureus RN4220; assay type: functional
Staphylococcus aureus [6] = assay: Antibacterial activity against methicillin-resistant Staphylococcus aureus CCARM 3167; assay type: functional

Compound	IC50 [1] [µM]	Activity (Staphylococcus aureus [2])	Activity (Staphylococcus aureus [3])	inhibition [4]	MIC (Staphylococcus aureus [5]) [mg/L]	MIC (Staphylococcus aureus [6]) [mg/L]
O=c1cc(O)cc([C@H]2c3c(cc(/C=C/c4ccc(O)c(O)c4)oc3=O)O[C@@H]2c2ccc(O)c(O)c2)o1 [HYPHOLOMINE B]	15.3	inactive	inactive	–	–	–
O=c1cc(O)cc([C@H]2c3c(cc(/C=C/c4cc(O)c(O)cc4-c4c(O)cc(/C=C/c5ccc(O)c(O)c5)oc4=O)oc3=O)O[C@@H]2c2ccc(O)c(O)c2)o1 [PHELLINSTATIN]	6	–	–	Dose-dependent effect	128 (≈ 174 µM)	128 (≈ 174 µM)
